Reference: patent US11116746B2, “Use of rice bran oil distillate extract for prevention and mitigation of the effects of radiation” (Tocol Pharmaceuticals, LLC, priority 2015, dated 2021)

What was measured:
[1] = system: H9c2 rat heart cardiomyocytes; assay: Cell morphology of cardiomyocytes after H2O2 damage; format: cell-based; settings: 5 μM pretreatment overnight; 100 and 200 μM H2O2 for 4 h
Experimental: H9c2 rat heart cardiomyocytes were treated with either vehicle control (DMSO, 0.1% v/v), 5 μM delta-tocotrienol or 5 μM TRFRB overnight. Cells were then exposed to 100 or 200 μM H2O2 for 4 h. Morphological changes were recorded under an inverted microscope. Pictures were taken at 10× magnification. Scale bar represents 400 μm.
We then investigated whether TRFRB can protect the various cells types from different tissue origins against H2O2 or IR induced oxidative damage.

[2] = single injection; cited from earlier work
[3] = system: H9c2 rat heart cardiomyocytes; assay: Mitochondrial bioenergetics (oxygen consumption rate, XF96 analyzer) in H9c2 cells with or without H2O2; format: cell-based
Experimental: Oxygen consumption rate (OCR) was measured at 37° C. using an XF96 extracellular analyzer (Seahorse Bioscience) as previously described Pathak et al., Antioxid Redox Signal 2014, 20, 1436-1446. H9c2 rat heart cardiomyocytes cells were plated in 96 well Seahorse plates. The next day they were treated with either vehicle (DMSO, 0.1% v/v) or 5 μM of DT3 or 5 μM of TRFRB overnight. The cells were then treated with 50 or 100 μM H2O2 for 4 h at 37° C. The media in the wells were changed to unbuffered DMEM supplemented with 4 mM […] and incubated in a non-CO2 incubator for 1 h at 37° C. Three baseline measurements were acquired before injection of mitochondrial inhibitors or uncouplers. Readings were taken after sequential addition of oligomycin (10 μM), carbonylcyanide 4-(trifluoromethoxy)phenylhydrazone (FCCP, 10 μM) and rotenone/antimycin A (10 μM). Oxygen consumption rates were calculated by the Seahorse XF-96 software and represent an average of 3 measurements on 8 different wells. The rate of measured oxygen consumption was reported as pmol O2 consumed per minute per 10,000 cells.
Therefore, the next experiment assessed the effects of TRFRB and pure DT3 on cellular bioenergetics and mitochondrial respiration in the absence of any cellular stress. Intracellular mitochondrial function was examined by sequentially adding inhibitors of oxidative phosphorylation. Initially we took 3 measurements to determine the “basal respiration” of the cells. By injecting an inhibitor of mitochondrial ATP synthase (oligomycin), a decrease in oxygen consumption rate (OCR) was obtained and this decrease in OCR is termed as “ATP linked respiration”. In order to determine the maximal respiration potential of the cells, FCCP, an uncoupler, was used. Immediately following FCCP injection, oxygen consumption increased and cells reached to their maximum respiration. Mitochondrial “reserve respiratory capacity” was calculated by subtracting […]. Overnight (16 h) treatment of both DT3 and TRFRB increased basal oxygen consumption rate (OCR) as well as maximum OCR in H9c2 rat heart cardiomyocytes (FIG. 4A). […] 100 μM H2O2 treatment for 4 h completely halted the cellular respiration (FIGS. 4B and C).

HaCaT cells [4] = assay: In vitro scratch assay (keratinocyte migration) after 8 Gy IR; format: cell-based, human; settings: 5 μM given 4 h after IR exposure
Experimental: Human immortalized keratinocytes (HaCaT cells) were plated in 12 well culture plates and irradiated with 8 Gy or sham irradiated 24 h after plating. The cells were given either vehicle (DMSO, 0.1% v/v) or 5 μM of DT3 or 5 μM of TRFRB 4 hours following radiation. Culture media were replaced again at 36 h following radiation. At the 72 h time point, a scratch was made using a sterile micropipette tip in each well. This created an open area into which the keratinocytes migrated. Two areas of the scratch margins were imaged daily until scratches were closed. The area of the scratch remaining was measured on the images at five points per field, with two fixed fields averaged using Cell Analyzer 1.0 (BWTech, Iowa City, Iowa). Measurements were stopped when cells no longer made positive progress towards the scratch origin. See Ross et al., Exp Dermatol 2011, 20, 58-63.
This protection in the increased survival fraction was not statistically significant compared to 8 Gy IR alone group (FIG. 7). An in vitro scratch assay was utilized to evaluate the protective efficacy of TRFRB for keratinocyte migration function when the cells were treated with TRFRB after IR exposure.

HaCaT cells [5] = assay: Mitochondrial bioenergetics (mitochondrial uncoupling) in irradiated keratinocytes; format: cell-based, human; settings: 5 μM pretreatment 16 h prior to 8 Gy IR; 48 h following IR; normalized to sham irradiated control
Experimental: In order to determine the radioprotective effects of TRFRB, human immortalized keratinocytes (HaCaT cells) were plated in 96 well Seahorse plates. The next day they were treated with either vehicle (DMSO, 0.1% v/v) or 5 μM of DT3 or 5 μM of TRFRB overnight. The Seahorse plates were either sham irradiated or irradiated with 8 Gy of γ-irradiation. Both plates were sequentially run in the XF96 extracellular analyzer as described above.
Secondly we utilized an immortalized human skin keratinocyte line (HaCaT cells) to evaluate the radioprotective effects of TRFRB. HaCaT cells were pretreated with DMSO vehicle or 5 μM of DT3 or TRFRB for 16 h prior to 8 Gy IR. Then the cellular bioenergetics and mitochondrial respiration in these cells were assayed at 48 h following IR exposure as described with H9c2 cells. The percent mitochondrial uncoupling is defined and calculated by determining the increase in the ratio of basal respiration to maximum respiration (OCR following FCCP treatment) and the data was normalized to the sham irradiated control group.

[6] = system: TBHP induced lipid peroxidation in Wistar rat liver microsomes; assay: TBARS assay: inhibition of TBHP induced microsomal lipid peroxidation; format: biochemical; settings: microsomes pretreated 1 h, then TBHP 30 min; TRFRB expressed in μM of tocotrienols; read-out: IC50, concentration that reduced the amount of lipid peroxidation approximately 50%
Experimental: The antioxidant activity of TRFRB was assessed measuring the ability to prevent microsomal lipid peroxidation. For this a TBARS assay was performed using a modified version of the original method described by Buege and Aust, Microsomal lipid peroxidation. Methods Enzymol 1978, 52, 302-310. Briefly, rat liver microsomes (BD Bioscience) were suspended in PBS in glass tubes at final concentration of 1 mg/mL. To this, increasing concentrations of TRFRB dissolved in DMSO were added. DMSO alone was used as control. The final DMSO percentage was kept under 0.1%. Microsomes were subsequently incubated with the test compounds at 37° C. for one hour in a shaking water bath (100 rpm). After one hour, freshly made tert-Butyl hydroperoxide (TBHP) solution was added to microsomes at a final concentration of 200 μM and incubation was continued for another 30 mins. The reaction was terminated by addition of 20% trichloroacetic acid and tubes were placed on ice for 15 mins. Equal volume of 0.67% thiobarbituric acid in 0.05N NaOH was added and the final mixture was heated at 95° C. for 45 mins to allow the color to develop. Finally, the tubes were cooled on ice and centrifuged at 1000 rpm for 20 mins and the supernatant was read at 532 nm. The percent TBARS was calculated using a standard curve obtained using malondialdehyde (MDA). […]

SMILES	protection of cell morphology against H2O2 treatment [1]	dose reduction factor (DRF) as a radiomitigator [2]	dose reduction factor (DRF) as a radioprotectant [2]	mitochondrial respiration following H2O2 injury ([3]; 5 μM for 16 h prior to 50 or 100 μM H2O2 for 4 h)	basal oxygen consumption rate (OCR) ([3]; 5 μM overnight (16 h), no cellular stress)	maximum OCR ([3]; 5 μM overnight (16 h), no cellular stress, after FCCP)	reserve respiratory capacity ([3]; calculated from maximum and basal OCR)	migration rates (HaCaT cells [4])	degree of mitochondrial uncoupling (HaCaT cells [5])	IC50 [6]
CC(C)=CCC/C(C)=C/CC/C(C)=C/CC[C@]1(C)CCc2cc(O)cc(C)c2O1 [DT3, δ-tocotrienol]	significantly protected the morphology	1.1	1.27	complete protection and restored the mitochondrial respiration	increased	increased	an increase in reserve respiratory capacity	partially restored	this increase was reversed	–
CC(C)=CCC/C(C)=C/CC/C(C)=C/CC[C@]1(C)CCc2cc(O)c(C)c(C)c2O1 [GT3, γ-tocotrienol]	–	–	1.29	–	–	–	–	–	–	7 µM
